Literature values in patent publication US20110195110A1, “UREA COMPOUNDS USEFUL IN THE TREATMENT OF CANCER” (priority 2005, published 2011).

Columns and labels:
[1] = system: early phase CML; conditions: patients with early phase CML
[2] = system: Bcr-Abl E255K mutant; conditions: biochemical assay
[3] = system: Bcr-Abl kinase; conditions: greater potency than Imatinib
[4] = system: Imatinib-resistant mutations of Bcr-Abl

potency of inhibition of Bcr-Abl kinase activity relative to Imatinib [3] [fold] | Compound | response at haematological and cytogenetic levels [1] | inhibition of the E255K mutant [2] | inhibition of Imatinib-resistant mutations [4]
 | Cc1ccc(NC(=O)c2ccc(CN3CCN(C)CC3)cc2)cc1Nc1nccc(-c2cccnc2)n1 [Imatinib] | greater than 90% |  | 
20 | Cc1cn(-c2cc(NC(=O)c3ccc(C)c(Nc4nccc(-c5cccnc5)n4)c3)cc(C(F)(F)F)c2)cn1 [AMN-107] |  | somewhat weak inhibition | inhibit most Imatinib-resistant mutations, except for T3151
